One series has as its system Bacillus subtilis. The experiment in a line: Antibacterial activity against Bacillus subtilis assessed as zone of inhibition by disc diffusion method. It is filed as functional.
For another series, the system named is Staphylococcus aureus. The experiment in a line: Antibacterial activity against Staphylococcus aureus assessed as zone of inhibition. It is filed as functional.
Series [1] deals with Hyaluronan-binding protein 2 (Homo sapiens, UniProt Q14520). As to the kind of experiment: Inhibition of spermidine-induced human pro-PHBP autoactivation.
The nature of series [2]: Antioxidant activity assessed as DPPH radical scavenging activity at 50 uM. It is filed as functional.
For series [3], the system named is L929. The experiment in a line: Cytotoxicity against mouse L929 cells assessed as reduction in cell viability. It is filed as functional, cell-based.
A short description of series [4]: Inhibition of IL-2 production in CD28-stimulated human Jurkat E6.1 cells. It is filed as functional, cell-based.
A short description of series [5]: Inhibition of tyrosine kinase (unknown origin). More on the design: species or system Homo sapiens.
In a further series the test system is Mucor hiemalis. As to the kind of experiment: Antifungal activity against Mucor hiemalis assessed as inhibition of fungal growth measured after 18 to 48 hrs by microbroth dilution assay. It is filed as functional. Conditions: time 18-48 hrs.
The subject of series [6] is Micrococcus luteus. As to the kind of experiment: Antibacterial activity against Micrococcus luteus assessed as bacterial growth inhibition. It is filed as functional.
For a further series, the system named is Splenocyte. As to the kind of experiment: Immunosuppressive activity in BALB/c mouse splenocyte assessed as reduction in ConA-induced mouse T-lymphocytes proliferation incubated for 48 hrs by MTT assay. It is filed as functional, cell-based.
Series [7] in a line: Cytotoxicity against BALB/c mouse Splenocyte assessed as reduction in cell viability incubated for 48 hrs by MTT assay. The following applies: splenocytes. It is filed as toxicity, cell-based.
Another series deals with Enterococcus faecalis. As to the kind of experiment: Antibacterial activity against Enterococcus faecalis assessed as zone of inhibition. It is filed as functional.
The test system of a further series is SW480. The experiment in a line: Cytotoxicity against human SW480 cells assessed as reduction in cell growth by MTT assay. It is filed as functional, cell-based.
The next series concerns RAW264.7. The experiment in a line: Anti-inflammatory activity in mouse RAW264.7 cells assessed as inhibition of NO production. It is filed as functional, cell-based.
The next series deals with Caenorhabditis elegans. The experiment in a line: Nematicidal activity against Caenorhabditis elegans. It is filed as functional. The following applies: read-out: LD50 (the source's name).
Another series relates to Yarrowia lipolytica. The experiment in a line: Antifungal activity against Yarrowia lipolytica assessed as zone of inhibition. It is filed as functional.
Series [8] deals with Micrococcus luteus. The experiment in a line: Antibacterial activity against Micrococcus luteus assessed as reduction in bacterial growth. It is filed as functional.
In series [9] the test system is L929. The experiment in a line: Cytotoxicity against mouse L929 cells assessed as reduction in cell viability by MTT assay. It is filed as functional, cell-based.
The subject of another series is Jurkat. The experiment in a line: Antiproliferative activity against human Jurkat cells assessed as reduction in cell viability measured after 24 hrs by MTT assay. It is filed as functional, cell-based.
In the next series the test system is Ramos. As to the kind of experiment: Antiproliferative activity against human Ramos cells assessed as reduction in cell viability measured after 24 hrs by MTT assay. It is filed as functional, cell-based.

Results on 21 compounds are retold here after ChEMBL document CHEMBL5360583, “Benzo[j]fluoranthene-Derived Natural Products” (J Nat Prod, 2023).

Converted amounts (≈) assume the structure as drawn.

Hyaluronan-binding protein 2, sequence (Q14520 24-313 limits assumed): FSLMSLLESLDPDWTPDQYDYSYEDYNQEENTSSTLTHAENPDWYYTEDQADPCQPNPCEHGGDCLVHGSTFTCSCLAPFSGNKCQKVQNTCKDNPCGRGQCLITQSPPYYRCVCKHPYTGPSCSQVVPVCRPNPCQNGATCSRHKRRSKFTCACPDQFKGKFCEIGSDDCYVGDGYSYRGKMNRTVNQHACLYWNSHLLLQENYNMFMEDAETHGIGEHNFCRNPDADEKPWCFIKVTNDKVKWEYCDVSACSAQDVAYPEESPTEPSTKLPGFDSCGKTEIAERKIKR
Hyaluronan-binding protein 2, sequence (Q14520 314-560 limits assumed): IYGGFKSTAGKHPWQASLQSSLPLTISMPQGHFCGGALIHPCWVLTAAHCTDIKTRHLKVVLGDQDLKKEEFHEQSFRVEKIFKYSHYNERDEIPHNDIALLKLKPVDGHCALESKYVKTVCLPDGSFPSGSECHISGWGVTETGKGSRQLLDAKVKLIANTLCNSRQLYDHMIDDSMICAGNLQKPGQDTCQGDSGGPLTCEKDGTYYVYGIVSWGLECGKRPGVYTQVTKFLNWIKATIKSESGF

As to `O=C1C[C@@H]2[C@H]3CCC(=O)c4c(O)ccc(c43)[C@]2(O)c2cccc(O)c21`, the “inhibition zone (IZ)” value is listed as 11 mm with Bacillus subtilis and 12 mm with Staphylococcus aureus.
In series [1], `O=C1C(O)=c2c(c3ccc(=O)c4c(O)ccc2c4-3)-c2cccc(O)c21` had an IC50 of 14 µM.
In the case of `O=C1C[C@H]2C(=C3c4c2ccc(O)c4[C@@H](O)C[C@H]3O)c2cccc(O)c21`, the Activity in [2] turned out to be 1.74%.
Regarding `O=C1C(O)=c2c(c3cc(O)c(=O)c4c(O)ccc2c4-3)-c2cccc(O)c21`, in the series with L929 [3], the IC50 came out at 7 µM.
Take `COC1C(=O)c2c(O)cccc2C2=C3CCC(=O)c4c(O)ccc(c43)C21` (centres undefined): the IC50 in series [4] worked out at 2.4 µM; in series [5], 0.045 µM.
Consider `COc1cccc2c3c(ccc12)-c1ccc(O)c2c(OC)ccc-3c12`, for which the MIC in the series on Mucor hiemalis was 4.3 µg/mL (≈ 13.1 µM).
As for `Oc1cccc2c3c(ccc12)-c1ccc(O)c2c(O)ccc-3c12`, the minimal inhibitory concentration (MIC) in the series with Micrococcus luteus [6] was 16.7 µg/mL (≈ 55.6 µM).
For `Oc1cccc2c3c(ccc12)-c1ccc(O)c2cccc-3c12`, the IC50 with Splenocyte was found to be 0.025 µg/mL (≈ 0.0879 µM). The IC50 at 48 h in [7] turned out to be 0.22 µg/mL (≈ 0.774 µM).
`O=C1C[C@@H]2[C@H]3CC[C@@H](O)c4c(O)ccc(c43)[C@]2(O)c2cccc(O)c21`: the “inhibition zone (IZ)” value in the series on Bacillus subtilis and in the series on Enterococcus faecalis was 10 mm throughout.
Take `COC1C(O)c2c(O)cccc2C2=C3CCC(=O)c4c(O)ccc(c43)C21` (centres undefined): the IC50 in series [4] and in [5] was greater than 5 µM each time.
For `COc1cccc2c3c(ccc12)-c1ccc(O)c2c(O)ccc-3c12`, the MIC in the series with Micrococcus luteus [6] was 8.3 µg/mL (≈ 26.4 µM).
In the case of `O=C1C[C@@H]2[C@H]3CC[C@H](O)c4c(O)ccc(c43)[C@]2(O)c2cccc(O)c21`, the IC50 in the series on SW480 came to 9.59 µM. In addition, the “inhibition zone (IZ)” value in the series with Staphylococcus aureus and with Enterococcus faecalis was 10 mm each time.
With `CO[C@@H]1[C@H](O)c2c(O)cccc2C2=C3CCC(=O)c4c(O)ccc(c43)[C@H]21`, the IC50 in series [4] is 0.4 µM; in series [5] it was 0.06 µM.
On to `CO[C@H]1C[C@H](O)C2=C3c4cccc(O)c4C(=O)C[C@@H]3c3ccc(O)c1c32` [HYPOXYLONOL B], for which, in the series with RAW264.7, the IC50 came to 21.1 µM.
On to `O=C1c2c3c(cc(O)c2[C@H](O)[C@@H]2O[C@H]12)C1C=CC(O)=C2C(O)=CC=C3C21` (some centres undefined), for which the LC50 with Caenorhabditis elegans worked out at 50 µg/mL (≈ 143 µM). Moreover, the “inhibition zone (IZ)” value was found to be 11 mm with Bacillus subtilis and 8 mm in the series with Yarrowia lipolytica.
With `O=C1C[C@H]2C(=C3CCC(=O)c4c(O)ccc2c43)c2cccc(O)c21`, the MIC with Micrococcus luteus [8] was 16.7 µg/mL (≈ 52.5 µM). Moreover, the LC50 in the series on Caenorhabditis elegans is 100 µg/mL (≈ 314 µM). Further, the IC50 with L929 [9] turned out to be 10.4 µM. For the same compound, the entries for the “inhibition zone (IZ)” value with Bacillus subtilis and with Yarrowia lipolytica were 11 mm and 9 mm, respectively.
On to `CO[C@@H]1[C@H](OC)c2c(O)cccc2C2=C3CCC(=O)c4c(O)ccc(c43)[C@H]21`, for which the values for the 50% inhibitory concentration (IC50) in series [4] and in series [5] were 2.5 µM and 0.76 µM, respectively.
`O=C1C[C@]2(O)C(=C3C=CC(=O)c4c(O)ccc2c43)c2cccc(O)c21`: the IC50 in the series with Jurkat is 14.1 µM; in the series on Ramos, 6.6 µM.
In the case of `O=C1C[C@H](O)[C@H]2c3c(ccc(O)c31)-c1cc(O)c3c(O)cccc3c12`, the IC50 in the series on L929 [9] was 1.1 µM.
As for `O=C1C[C@@H]2[C@@H]3CCC(=O)c4c(O)ccc(c43)[C@]2(O)c2cccc(O)c21`, the LC50 in the series on Caenorhabditis elegans was 25 µg/mL (≈ 74.3 µM). The “inhibition zone (IZ)” value in the series with Bacillus subtilis amounted to 10 mm; with Yarrowia lipolytica, 7 mm.
Take `CO[C@H]1C[C@H](O)C2=C3c4cccc(O)c4C(=O)[C@@H](O)[C@@H]3C3=CC=C(O)C1C32` (some centres undefined): in the series with RAW264.7, the IC50 turned out to be 14.4 µM.
